Read-outs that look alike come from different tables or passages of the source.
What was measured:
[1] = target: FAK enzyme (catalytic domain, amino acids 411-686) (Homo sapiens, UniProt Q05397); experiment: biochemical
[2] = target: N-terminally GST-fused purified FAK enzyme (Homo sapiens, UniProt Q05397); experiment: biochemical
Procedure: Binding parameters of compounds were determined using a Biacore™ S51 sensor. An anti-GST antibody was immobilized onto a CM5 chip by primary amine-coupling in accordance with the manufacturer's recommendations.
Concentration series' of the test compounds were injected over the spots at 25° C.
After the injection cycle of a compound the chip surface was regenerated with 10 mM glycine-HCl, pH2.2 before capturing the enzyme again.

[3] = target: VEGFR3 cytoplasmic domain (Homo sapiens, UniProt P35916); experiment: biochemical
MDA-231-LNA cells = experiment: cells; details: 72 h
[4] = target: T1, Phospho VEGFR3 (Flt4) in HMVEC-dLyAD cells (Homo sapiens, UniProt P35916); experiment: Flt4 Phospho ELISA assay; assay type: cell-based
T1 construct: host or cells: HMVEC-dLyAD (adult human dermal lymphatic microvascular endothelial cells)
Procedure: The ability of compounds of the invention to inhibit VEGFR3 within cells can be assessed with an ELISA type assay.
The plates were covered and incubated at room temperature overnight.
300 μL of Blocking buffer (5% v/v Tween 20, 5% w/v sucrose in PBS) was then added to wells and plate incubated for 2 hours at room temperature. Blocking solution is flicked out and plates washed three times and tapped dry.
Compound dilution series were prepared in Endogro basal (Cat # SCME-BM, Millipore)+0.1% BSA (Cat#A8412, Sigma) with constant 0.1% DMSO concentration. 439 μL of sample or vehicle control was added to the cell monolayers.
130 μL of Lysis buffer added to wells and cell lysate harvested and transferred to tubes and stored on ice.
The plates were then washed three times in wash buffer as described above and tapped dry. […]
Total VEGFR3 levels were quantified using a Multiskan Ascent plate reader and Ascent software fitted with 450 nm filter. […]
Phospho VEGFR3 levels were quantified using a Multiscan ascent plate reader and ascent software fitted with 450 nm filter.
where SRP is the Sample Relative Phospho level, SP is Phospho VEGFR3 reading and ST is Total VEGFR3 reading.
Percent inhibition (% I) for each lysate relative to vehicle control (VEGF-C stimulated) is then calculated according to the following formula:
where SRP is the Sample Relative Phospho level as calculated above. […]

[5] = target: T2, VEGFR3 cytoplasmic domain (Homo sapiens, UniProt P35916, DEL949-1002); experiment: biochemical
T2 construct: VEGFR3 cytoplasmic domain (amino acids 798-1298) was purchased as N-terminal GST-fusion protein; purchased

[6] = system: taxane-sensitive (SKOV3ip1 and HeyA8) and taxane-resistant (HeyA8-MDR) ovarian cancer cell lines; details: in vitro; cited from earlier work
[7] = system: HeyA8, SKOV3ip1, and HeyA8-MDR models; details: cited from earlier work

Sequence of FAK enzyme (catalytic domain, amino acids 411-686) (Q05397 411-686, species assumed): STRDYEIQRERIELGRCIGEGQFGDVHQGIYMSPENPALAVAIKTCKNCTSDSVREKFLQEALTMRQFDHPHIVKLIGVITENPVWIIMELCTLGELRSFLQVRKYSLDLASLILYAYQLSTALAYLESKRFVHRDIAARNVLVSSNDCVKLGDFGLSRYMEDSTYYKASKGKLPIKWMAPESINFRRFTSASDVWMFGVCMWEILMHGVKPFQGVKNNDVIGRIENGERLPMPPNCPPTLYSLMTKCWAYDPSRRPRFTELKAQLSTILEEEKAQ
Sequence of N-terminally GST-fused purified FAK enzyme (Q05397 whole entry, the tested form may be a part): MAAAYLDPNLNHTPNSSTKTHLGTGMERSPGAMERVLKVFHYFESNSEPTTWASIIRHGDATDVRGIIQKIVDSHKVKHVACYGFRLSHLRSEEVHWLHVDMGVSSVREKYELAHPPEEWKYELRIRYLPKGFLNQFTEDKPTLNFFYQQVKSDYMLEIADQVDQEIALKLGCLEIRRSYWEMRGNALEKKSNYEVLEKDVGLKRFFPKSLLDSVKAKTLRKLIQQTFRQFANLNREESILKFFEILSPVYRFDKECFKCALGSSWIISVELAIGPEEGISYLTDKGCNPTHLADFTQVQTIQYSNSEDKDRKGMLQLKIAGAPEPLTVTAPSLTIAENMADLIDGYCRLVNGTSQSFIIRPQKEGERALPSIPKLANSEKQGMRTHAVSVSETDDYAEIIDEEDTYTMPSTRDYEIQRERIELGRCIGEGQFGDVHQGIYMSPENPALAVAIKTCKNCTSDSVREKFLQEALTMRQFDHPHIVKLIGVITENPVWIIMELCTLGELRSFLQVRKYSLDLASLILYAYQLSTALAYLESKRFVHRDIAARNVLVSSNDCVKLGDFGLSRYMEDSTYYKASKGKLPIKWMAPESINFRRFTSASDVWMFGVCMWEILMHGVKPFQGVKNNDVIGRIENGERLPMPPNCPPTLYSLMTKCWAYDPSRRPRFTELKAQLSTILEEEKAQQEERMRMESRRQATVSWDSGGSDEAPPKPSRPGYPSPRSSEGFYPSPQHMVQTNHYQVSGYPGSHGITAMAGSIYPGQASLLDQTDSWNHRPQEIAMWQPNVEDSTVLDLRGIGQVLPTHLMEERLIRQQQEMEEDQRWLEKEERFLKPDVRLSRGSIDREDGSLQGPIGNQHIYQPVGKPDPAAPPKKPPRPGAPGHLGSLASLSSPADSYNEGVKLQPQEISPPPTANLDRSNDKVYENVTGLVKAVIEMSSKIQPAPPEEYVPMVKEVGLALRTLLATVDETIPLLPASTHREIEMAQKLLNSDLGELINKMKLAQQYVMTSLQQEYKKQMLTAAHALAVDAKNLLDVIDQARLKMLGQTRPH
Sequence of VEGFR3 cytoplasmic domain (Homo sapiens, UniProt P35916) (P35916 other isoform, or with tags, fused parts or gaps): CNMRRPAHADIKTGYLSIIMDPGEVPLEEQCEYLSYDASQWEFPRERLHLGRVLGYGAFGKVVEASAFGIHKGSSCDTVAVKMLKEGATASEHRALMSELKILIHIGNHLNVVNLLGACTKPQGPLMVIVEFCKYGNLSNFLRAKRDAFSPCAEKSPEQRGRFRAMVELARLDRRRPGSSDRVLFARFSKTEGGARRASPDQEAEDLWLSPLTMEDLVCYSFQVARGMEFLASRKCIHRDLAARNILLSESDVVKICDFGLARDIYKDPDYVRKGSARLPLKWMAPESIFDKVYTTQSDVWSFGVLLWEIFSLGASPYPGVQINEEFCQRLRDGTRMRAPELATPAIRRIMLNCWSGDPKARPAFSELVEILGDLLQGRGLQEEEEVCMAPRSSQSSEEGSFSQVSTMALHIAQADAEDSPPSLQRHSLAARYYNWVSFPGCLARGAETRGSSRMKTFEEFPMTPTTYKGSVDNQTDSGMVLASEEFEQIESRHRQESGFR
T1 sequence (P35916 25-1363): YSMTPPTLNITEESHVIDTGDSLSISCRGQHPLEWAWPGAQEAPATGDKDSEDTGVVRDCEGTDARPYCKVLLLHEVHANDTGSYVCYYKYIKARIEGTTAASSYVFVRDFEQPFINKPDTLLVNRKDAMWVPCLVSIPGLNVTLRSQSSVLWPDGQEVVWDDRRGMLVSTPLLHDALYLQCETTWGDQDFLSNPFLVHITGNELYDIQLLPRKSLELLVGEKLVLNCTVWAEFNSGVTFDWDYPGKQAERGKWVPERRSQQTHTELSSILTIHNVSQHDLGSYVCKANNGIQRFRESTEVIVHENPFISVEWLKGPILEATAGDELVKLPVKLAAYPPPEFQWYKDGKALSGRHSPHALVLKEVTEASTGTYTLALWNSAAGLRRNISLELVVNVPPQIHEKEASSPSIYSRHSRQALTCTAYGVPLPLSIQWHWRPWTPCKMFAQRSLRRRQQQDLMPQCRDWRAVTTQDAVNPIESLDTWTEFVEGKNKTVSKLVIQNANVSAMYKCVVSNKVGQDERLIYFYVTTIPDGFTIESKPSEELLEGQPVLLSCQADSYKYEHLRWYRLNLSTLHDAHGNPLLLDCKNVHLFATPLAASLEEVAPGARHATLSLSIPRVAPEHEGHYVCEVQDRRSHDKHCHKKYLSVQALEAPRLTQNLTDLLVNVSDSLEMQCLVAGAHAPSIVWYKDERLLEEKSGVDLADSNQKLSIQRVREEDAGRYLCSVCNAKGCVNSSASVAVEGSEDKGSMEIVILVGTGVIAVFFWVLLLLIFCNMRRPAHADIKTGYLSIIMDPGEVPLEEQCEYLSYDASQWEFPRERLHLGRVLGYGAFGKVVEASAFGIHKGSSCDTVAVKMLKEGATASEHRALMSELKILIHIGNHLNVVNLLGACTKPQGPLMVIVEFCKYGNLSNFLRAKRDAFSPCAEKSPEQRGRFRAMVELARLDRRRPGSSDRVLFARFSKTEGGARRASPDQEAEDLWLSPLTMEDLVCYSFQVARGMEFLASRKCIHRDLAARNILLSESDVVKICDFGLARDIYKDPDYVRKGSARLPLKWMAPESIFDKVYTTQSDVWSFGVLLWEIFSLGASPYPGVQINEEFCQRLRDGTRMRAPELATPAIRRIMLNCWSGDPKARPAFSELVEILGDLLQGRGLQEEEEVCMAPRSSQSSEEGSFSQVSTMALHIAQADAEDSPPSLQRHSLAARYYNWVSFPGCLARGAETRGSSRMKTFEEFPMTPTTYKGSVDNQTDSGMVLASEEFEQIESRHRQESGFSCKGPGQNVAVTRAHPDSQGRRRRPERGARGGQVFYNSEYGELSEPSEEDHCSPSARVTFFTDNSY
T2 sequence (P35916 with tags, fused parts or gaps DEL949-1002): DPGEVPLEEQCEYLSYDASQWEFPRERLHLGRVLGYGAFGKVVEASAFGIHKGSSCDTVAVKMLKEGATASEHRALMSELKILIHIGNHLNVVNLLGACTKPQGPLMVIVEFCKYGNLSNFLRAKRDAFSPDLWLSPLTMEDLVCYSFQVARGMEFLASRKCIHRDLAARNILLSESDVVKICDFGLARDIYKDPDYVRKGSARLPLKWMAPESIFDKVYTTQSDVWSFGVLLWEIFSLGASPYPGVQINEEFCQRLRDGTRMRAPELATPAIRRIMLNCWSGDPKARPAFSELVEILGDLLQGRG

Structure (SMILES) | IC50 [1] [nM] | Kd [2] [nM] | IC50 (MDA-231-LNA cells) [nM] | further results
NC(=O)Cc1ccccc1CCc1nc(Nc2ccc(N3CCC(N)CC3)cc2)ncc1C(F)(F)F [Compound 20, 2-(2-(2-(2-((4-(4-Aminopiperidin-1-yl)phenyl)amino)-5-(trifluoromethyl)pyrimidin-4-yl)ethyl)phenyl)acetamide] | 0.81 | 0.63 |  | 
CN1CCCCC1c1ccc(Nc2ncc(C(F)(F)F)c(CCc3ccccc3CC(N)=O)n2)cc1 (centres unmarked) [Compound 9] | 7 | 7 |  | 
CN1CCN(c2ccc(Nc3ncc(C(F)(F)F)c(CCc4ccccc4CC(N)=O)n3)cc2)CC1 [Compound 3] | 1.9 | 0.91 |  | 
CC(C(N)=O)c1ccccc1CCc1nc(Nc2ccc(C3CCNCC3)cc2)ncc1C(F)(F)F (centres unmarked) [Compound 12, 2-(2-(2-(2-((4-(Piperidin-4-yl)phenyl)amino)-5-(trifluoromethyl)pyrimidin-4-yl)ethyl)phenyl)propanamide] | 6.3 | 0.92 |  | 
CN1CCN(c2cccc(Nc3ncc(C(F)(F)F)c(CCc4cccc(C(N)=O)c4)n3)c2)CC1 [Compound 6, 3-(2-(2-((3-(4-Methylpiperazin-1-yl)phenyl)amino)-5-(trifluoromethyl)pyrimidin-4-yl)ethyl)benzamide] | 4.2 | 6.3 | 3910 | IC50 [3]: 52 nM
NC(=O)Cc1ccccc1CCc1nc(Nc2ccc(CN3CCNCC3)cc2)ncc1C(F)(F)F [Compound 25, 2-(2-(2-(2-((4-(piperazin-1-ylmethyl)phenyl)amino)-5-(trifluoromethyl)pyrimidin-4-yl)ethyl)phenyl)acetamide] |  |  | 2890 | 
NC(=O)c1cccc(CCc2nc(Nc3ccc(CN4CCNCC4)cc3)ncc2C(F)(F)F)c1 [Compound 37, 3-(2-(2-((4-(piperazin-1-ylmethyl)phenyl)amino)-5-(trifluoromethyl)pyrimidin-4-yl)ethyl)benzamide] | 15 |  | 2790 | IC50 [3]: 254 nM
NC(=O)Cc1cncnc1CCc1nc(Nc2ccc(C3CCNCC3)cc2)ncc1C(F)(F)F [Compound 29, 2-(4-(2-(2-((4-(Piperidin-4-yl)phenyl)amino)-5-(trifluoromethyl)pyrimidin-4-yl)ethyl)pyrimidin-5-yl)acetamide] | 11 | 12.1 |  | 
CN1CCN(Cc2ccc(Nc3ncc(C(F)(F)F)c(CCc4ccccc4CC(N)=O)n3)cc2)CC1 [Compound 36, 2-(2-(2-(2-((4-((4-Methylpiperazin-1-yl)methyl)phenyl)amino)-5-(trifluoromethyl)pyrimidin-4-yl)ethyl)phenyl)acetamide] | 2.3 | 0.48 | 5620 | IC50 [3]: 16 nM; IC50 [4]: 169 nM
O=C1NCc2cccc(CCc3nc(Nc4ccc(N5CCNCC5)cc4)ncc3C(F)(F)F)c21 [Compound 15, 7-(2-(2-((4-(piperazin-1-yl)phenyl)amino)-5-(trifluoromethyl)pyrimidin-4-yl)ethyl)isoindolin-1-one] | 18 | 5 | 2370 | IC50 ([3]; read-out: IC50): 37 nM
NC(=O)Cc1ccccc1CCc1nc(Nc2ccc(C3CCCNC3)cc2)ncc1C(F)(F)F (centres unmarked) [Compound 4, 2-(2-(2-(2-((4-(Piperidin-3-yl)phenyl)amino)-5-(trifluoromethyl)pyrimidin-4-yl)ethyl)phenyl)acetamide] | 1.5 | 0.73 |  | 
CN1CCC(c2ccc(Nc3ncc(C(F)(F)F)c(CCc4cc(C(N)=O)ccn4)n3)cc2)CC1 [Compound 34, 2-(2-(2-((4-(1-Methylpiperidin-4-yl)phenyl)amino)-5-(trifluoromethyl)pyrimidin-4-yl)ethyl)isonicotinamide] | 5.7 | 5 | 7850 | IC50 [5]: 184 nM
CN1CCN(c2ccc(Nc3ncc(C(F)(F)F)c(CCc4cccc(C(N)=O)c4)n3)cc2)CC1 [Compound 2, 3-(2-(2-((4-(4-Methylpiperazin-1-yl)phenyl)amino)-5-(trifluoromethyl)pyrimidin-4-yl)ethyl)benzamide] | 2.5 | 1.5 | 3210 | IC50 ([5]; modified form (*): N-terminal Hexa-His-fusion protein, amino acids 818-1177 lacking 949-1002, read-out: IC50): 120 nM
Cc1ccc(CCc2nc(Nc3ccc(N4CCNCC4)cc3)ncc2C(F)(F)F)cc1C(N)=O [Compound 19, 2-Methyl-5-(2-(2-((4-(piperazin-1-yl)phenyl)amino)-5-(trifluoromethyl)pyrimidin-4-yl)ethyl)benzamide] | 7.7 | 7.8 | 1490 | IC50 [3]: 37 nM
NC(=O)Cc1ccccc1CCc1nc(Nc2ccc(C3CCNCC3)cc2)ncc1C(F)(F)F [Compound 11, 2-(2-(2-(2-((4-(Piperidin-4-yl)phenyl)amino)-5-(trifluoromethyl)pyrimidin-4-yl)ethyl)phenyl)acetamide] | 3 | 0.61 |  | 
NC(=O)Cc1ccccc1CCc1nc(Nc2ccc3c(c2)CCNC3)ncc1C(F)(F)F [Compound 21, 2-(2-(2-(2-((1,2,3,4-Tetrahydroisoquinolin-6-yl)amino)-5-(trifluoromethyl)pyrimidin-4-yl)ethyl)phenyl)acetamide] | 2.4 | 0.44 |  | 
NC(=O)Cc1nccnc1CCc1nc(Nc2ccc(C3CCNCC3)cc2)ncc1C(F)(F)F [Compound 26, 2-(3-(2-(2-((4-(Piperidin-4-yl)phenyl)amino)-5-(trifluoromethyl)pyrimidin-4-yl)ethyl)pyrazin-2-yl)acetamide] | 20 | 14 |  | 
NC(=O)Cc1ccccc1CCc1nc(Nc2ccc(C3CCCCN3)cc2)ncc1C(F)(F)F (centres unmarked) [Compound 8, 2-(2-(2-(2-((4-(Piperidin-2-yl)phenyl)amino)-5-(trifluoromethyl)pyrimidin-4-yl)ethyl)phenyl)acetamide] | 6.1 | 1 |  | 
NC(=O)Cc1ccccc1CCc1nc(Nc2ccc(N3CCNCC3)cc2)ncc1C(F)(F)F [Compound 1, 2-(2-(2-(2-((4-(piperazin-1-yl)phenyl)amino)-5-(trifluoromethyl)pyrimidin-4-yl)ethyl)phenyl)acetamide] | 2.1 | 0.49 |  | 
CNC(=O)Cc1ccccc1CCc1nc(Nc2cccc(N3CCN(C)CC3)c2)ncc1C(F)(F)F [Compound 18] | 13 | 13 | > 5000 | IC50 [3]: 664 nM
CCN1CCC(c2ccc(Nc3ncc(C(F)(F)F)c(CCc4ccccc4CC(N)=O)n3)cc2)CC1 [Compound 31, 2-(2-(2-(2-((4-(1-Ethylpiperidin-4-yl)phenyl)amino)-5-(trifluoromethyl)pyrimidin-4-yl)ethyl)phenyl)acetamide] |  | 1 |  | 
NC(=O)Cc1ccccc1CCc1nc(Nc2ccc(C3CNCCO3)cc2)ncc1C(F)(F)F (centres unmarked) [Compound 22, 2-(2-(2-(2-((4-(morpholin-2-yl)phenyl)amino)-5-(trifluoromethyl)pyrimidin-4-yl)ethyl)phenyl)acetamide] | 2.8 | 0.99 |  | 
CNC(=O)c1ccccc1Nc1nc(Nc2ccc(N3CCOCC3)cc2OC)ncc1Cl [TAE226] |  |  |  | phosphorylation of FAK at both Y397 and Y861 sites [6]: inhibited; reduced tumour burden compared with vehicle-treated controls ([7]; TAE226 alone, HeyA8, SKOV3ip1, HeyA8-MDR models): 46-64%; tumour burden reduction ([7]; concomitant administration of TAE226 and docetaxel, all three models): 85-97%; survival in tumour-bearing mice ([7]; in combination with docetaxel): significantly prolonged survival
CNC(=O)Cc1ccccc1CCc1nc(Nc2ccc(N3CCNCC3)cc2)ncc1C(F)(F)F [Compound 14, N-Methyl-2-(2-(2-(2-((4-(piperazin-1-yl)phenyl)amino)-5-(trifluoromethyl)pyrimidin-4-yl)ethyl)phenyl)acetamide] | 21 | 6.1 | 4490 | IC50 [3]: 101 nM
CN1CCN(c2cccc(Nc3ncc(C(F)(F)F)c(CCc4ccccc4CC(N)=O)n3)c2)CC1 [Compound 17, 2-(2-(2-(2-((3-(4-Methylpiperazin-1-yl)phenyl)amino)-5-(trifluoromethyl)pyrimidin-4-yl)ethyl)phenyl)acetamide] | 3.4 | 3.5 | 3510 | IC50 [3]: 31 nM; IC50 [4]: 44 nM

— US20130324532A1 (priority 2011, published 2013)
